Reference: paper PMC3578829, “A Small Molecule (Pluripotin) as a Tool for Studying Cancer Stem Cell Biology: Proof of Concept” (PLoS ONE, 2013)

Tested on: COLO 205
Experiment: FACS analysis of putative CSC surface markers
Assay type: cell-based
Conditions: five days of SC-1 treatment
From the text: A BD FACsAria (BD Biosciences, San Jose, CA) was utilized for FACS analysis according to standard procedures. The instrument was equipped with a 488 nm 100 mW blue laser, a 638 nm 30 mW red laser, and a 405 nm 50 mW violet laser. The software package Diva 5.0 (BD Biosciences) was used for collection and analysis of data. The alignment of the three lasers in the flow cell was verified prior to running tumor cell samples by running Rainbow Beads (Spherotech). The six colors being used in the analysis were then compensated to account for spectral overlap emitted by the fluorochromes within each laser as well as across the lasers using a semi-automated process. […] The data was then run through the Diva software compensation matrices and the amount of “spectral bleed” from other fluorochromes into the fluorochrome of interest’s channel was determined and automatically compensated.
Treated and untreated cells (1×10^6 cells/condition) were harvested with trypsin EDTA (Invitrogen), washed, and then labeled with a six antibody cocktail (antibodies against the following epitopes: CD44, CD24, CD133, CD326, CD166, and P-glycoprotein in PBS without calcium and magnesium supplemented with 2% FBS) or appropriate isotype control antibodies. […] The specific amounts needed for each labeled antibody were determined through titration studies. […]

Cc1cc(Nc2ncc3c(n2)N(C)C(=O)N(c2cc(NC(=O)c4cccc(C(F)(F)F)c4)ccc2C)C3)n(C)n1 [SC-1]
Expression of the putative CSC markers: No increased expression
